This note sets out measurements from patent US20090227632A1, “PHARMACEUTICAL COMPOSITION COMPRISING, IN COMBINATION, SAREDUTANT AND A SELECTIVE SEROTONIN REUPTAKE INHIBITOR OR A SEROTONIN/NOREPINEPHRINE REUPTAKE INHIBITOR” (priority 2006, published 2009).

SMILES strings stand for the structures.

This experiment deals with rat. As to the kind of experiment: DRL-72 s (Differential Reinforcement of Low-rate-72 seconds) in-vivo rat test. The note with it: for % reinforced presses/total number of presses: n = 8 rats, test duration 1 hour, mean±SEM, solvent control 3.07 ± 0.48%; for minimum active dose in the DRL-72 s test: compound alone, intraperitoneally, rat. An excerpt: The in-vivo rat test DRL-72 s (Differential Reinforcement of Low-rate-72 seconds) is used according to the technique described by C. Louis et al., Neuropsychopharmacology, 2006, 1-8.
Effects compared with regard to the percentage of rewards obtained (reinforced presses) with respect to the total number of presses by the rat after intraperitoneal administration of the compound A alone, of the compound B alone and of the compound A+compound B combination versus the control (solvent alone).
Beforehand, the minimum active doses of the compound A alone and of the compound B alone in the DRL-72 s test were determined, namely: • compound A: 10 mg/kg intraperitoneally; • compound B: 5 mg/kg intraperitoneally.
The compound A alone at the dose of 3 mg/kg and the compound B alone at the dose of 2.5 mg/kg were dissolved in a 0.9% (weight/volume) aqueous sodium chloride solution comprising 0.1% (v/v) Tween 80® and administered intraperitoneally at a final volume of 1 ml/kg.
The combination was administered intraperitoneally by two simultaneous administrations of the compound A (3 mg/kg) and then of the compound B (2.5 mg/kg).
The doses of the compounds are expressed in the free base form.
For the requirements of the test, the effect of the compound A alone, the effect of the compound B alone and the effect of the compound A+compound B combination, compared with the effect of the solvent (control), are measured for each animal.
Each rat (n=8) thus receives four injections spread out over time, namely the solvent (control), the compound A alone, the compound B alone and the compound A+compound B combination.
The results obtained are collated in Table I and are expressed as a percentage of rewards obtained with respect to the total number of presses over the duration of the test (1 hour), in the mean±SEM (standard error of the mean) form.

As to `CC(=O)NC1(c2ccccc2)CCN(CC[C@H](CN(C)C(=O)c2ccccc2)c2ccc(Cl)c(Cl)c2)CC1` [Compound A, (S)-(−)-N-[4-(4-Acetamido-4-phenylpiperidin-1-yl)-2-(3,4-dichlorophenyl)butyl]-N-methylbenzamide], the “minimum active dose in the DRL-72 s test” value came out at 10 mg/kg. Further, the “percentage number of rewards obtained with respect to the control (in words)” value (compound A alone 3 mg/kg i.p., increase not statistically significant) was “only slightly modifies”. In addition, where the note is “compound A alone 3 mg/kg intraperitoneally”, the “% reinforced presses/total number of presses” value stood at 6.41 ± 1.73%.
For the compound `CNCCC(Oc1ccc(C(F)(F)F)cc1)c1ccccc1` (racemic) [Compound B, (±)-N-methyl-3-phenyl-3-[4-(trifluoromethyl)phenoxy]propan-1-amine], the “minimum active dose in the DRL-72 s test” value was 5 mg/kg. In addition, the “percentage number of rewards obtained with respect to the control (in words)” value (compound B alone 2.5 mg/kg i.p.) was “does not modify”. Besides, under “compound B alone 2.5 mg/kg intraperitoneally”, the “% reinforced presses/total number of presses” value amounted to 3.82 ± 0.76%.
